# From patent US10710978B2, “STK4 inhibitors for treatment of hematologic malignancies” (Dana-Farber Cancer Institute, Inc., priority 2015, dated 2020)
# Read-outs that look alike come from different tables or passages of the source.
# Tests used:
# Test in all cases: KiNativ assay
# Type in all cases: binding
# eEF2K = eEF2K (Homo sapiens (Human), UniProt O00418); settings: H929 live cell
# Method: (§1) Biochemical IC50s of the compounds of the present disclosure against various kinases were measured in a KiNativ assay. Compounds were screened in duplicate at 10 μM in H929 live cell. IC50 was measured via Mass spectroscopy (MS).
# MAP2K7 = MAP2K7 (Homo sapiens (Human), UniProt O14733); settings: H929 live cell
# Method: as §1
# PHKg2 = PHKg2 (Homo sapiens (Human), UniProt P15735); settings: H929 live cell
# Method: as §1
# BARK1 = BARK1 (Homo sapiens (Human), UniProt P25098); settings: H929 live cell
# Method: as §1
# PAN3 = PAN3 (Homo sapiens (Human), UniProt Q58A45); settings: H929 live cell
# PAN3, sequence (Q58A45 whole entry): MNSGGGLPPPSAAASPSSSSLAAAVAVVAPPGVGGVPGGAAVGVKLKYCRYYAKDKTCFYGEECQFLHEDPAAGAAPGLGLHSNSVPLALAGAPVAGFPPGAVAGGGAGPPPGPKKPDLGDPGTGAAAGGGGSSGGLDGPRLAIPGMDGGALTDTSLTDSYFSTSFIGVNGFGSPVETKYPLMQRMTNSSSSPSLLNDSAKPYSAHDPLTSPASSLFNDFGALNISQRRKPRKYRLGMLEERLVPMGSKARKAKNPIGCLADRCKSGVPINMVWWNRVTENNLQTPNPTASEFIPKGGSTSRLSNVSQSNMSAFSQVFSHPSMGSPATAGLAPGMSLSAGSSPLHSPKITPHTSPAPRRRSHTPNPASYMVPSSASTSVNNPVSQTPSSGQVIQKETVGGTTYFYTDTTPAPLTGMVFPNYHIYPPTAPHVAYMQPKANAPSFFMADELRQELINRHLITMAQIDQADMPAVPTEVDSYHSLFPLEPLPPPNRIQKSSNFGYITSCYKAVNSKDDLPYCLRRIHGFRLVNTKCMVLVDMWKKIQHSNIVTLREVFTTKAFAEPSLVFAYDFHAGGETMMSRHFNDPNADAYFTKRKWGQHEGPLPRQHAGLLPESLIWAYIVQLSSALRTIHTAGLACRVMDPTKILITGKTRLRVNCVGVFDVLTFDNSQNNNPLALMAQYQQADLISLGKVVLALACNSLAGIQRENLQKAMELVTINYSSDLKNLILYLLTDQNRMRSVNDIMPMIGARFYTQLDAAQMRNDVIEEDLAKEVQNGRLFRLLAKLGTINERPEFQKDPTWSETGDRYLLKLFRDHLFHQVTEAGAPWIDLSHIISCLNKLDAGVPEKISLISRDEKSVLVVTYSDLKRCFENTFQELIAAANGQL
# Method: as §1
# MARK1, MARK2 = settings: H929 live cell
# Method: as §1
# IRAK4 = IRAK4 (Homo sapiens (Human), UniProt Q9NWZ3); settings: H929 live cell
# Method: as §1
# PIK3CG = PIK3CG (Homo sapiens (Human), UniProt P48736); settings: H929 live cell
# Method: as §1
# MARK2, MARK3 = settings: H929 live cell
# Method: as §1
# CK1g2 = CK1g2 (Homo sapiens (Human), UniProt P78368); settings: H929 live cell
# Method: as §1
# Wnk1, Wnk2, Wnk3 = settings: H929 live cell
# Method: as §1
# DGKH = DGKH (Homo sapiens (Human), UniProt Q86XP1); settings: H929 live cell, read-out: inhibition (10 μM)
# Method: as §1
# NEK9 = NEK9 (Homo sapiens (Human), UniProt Q8TD19); settings: H929 live cell
# Method: as §1
# MARK3 = MARK3 (Homo sapiens (Human), UniProt P27448); settings: H929 live cell
# Method: as §1
# IRAK1 = IRAK1 (Homo sapiens (Human), UniProt P51617); settings: H929 live cell
# IRAK1, sequence (P51617 whole entry): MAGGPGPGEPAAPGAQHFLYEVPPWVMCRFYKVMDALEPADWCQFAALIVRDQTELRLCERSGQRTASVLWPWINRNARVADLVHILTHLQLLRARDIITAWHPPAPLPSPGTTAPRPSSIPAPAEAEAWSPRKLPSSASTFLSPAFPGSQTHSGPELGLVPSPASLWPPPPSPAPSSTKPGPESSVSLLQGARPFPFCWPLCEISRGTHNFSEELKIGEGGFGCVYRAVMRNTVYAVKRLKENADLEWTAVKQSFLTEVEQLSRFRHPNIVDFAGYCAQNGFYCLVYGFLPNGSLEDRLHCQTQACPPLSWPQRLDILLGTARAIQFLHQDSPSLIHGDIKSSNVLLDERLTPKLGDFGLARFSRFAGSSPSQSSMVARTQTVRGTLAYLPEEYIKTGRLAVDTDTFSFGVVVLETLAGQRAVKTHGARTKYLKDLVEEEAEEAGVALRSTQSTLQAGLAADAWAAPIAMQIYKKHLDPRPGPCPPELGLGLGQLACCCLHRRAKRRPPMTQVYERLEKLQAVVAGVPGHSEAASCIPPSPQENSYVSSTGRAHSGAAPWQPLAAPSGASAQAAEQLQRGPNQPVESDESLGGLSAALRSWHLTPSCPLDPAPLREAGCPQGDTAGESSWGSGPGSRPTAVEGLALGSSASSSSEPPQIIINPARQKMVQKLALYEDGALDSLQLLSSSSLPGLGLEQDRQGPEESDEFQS
# Method: as §1
# OSR1 = OSR1 (Homo sapiens (Human), UniProt O95747); settings: H929 live cell
# Method: as §1
# MSK2 domain1 = MSK2 domain1 (Homo sapiens (Human), UniProt O75676); settings: H929 live cell
# Method: as §1
# MST1, MST2 = settings: H929 live cell
# Method: as §1
# SMG1 = SMG1 (Homo sapiens (Human), UniProt Q96Q15); settings: H929 live cell
# Method: as §1
# CLK2 = CLK2 (Homo sapiens (Human), UniProt P49760); settings: H929 live cell
# Method: as §1
# [1] = test system: ZC1/HGK, ZC2/TNIK, ZC3/MINK; settings: H929 live cell
# Method: as §1
# IKKe, TBK1 = settings: H929 live cell
# Method: as §1
# CK1g3 = CK1g3 (Homo sapiens (Human), UniProt Q9Y6M4); settings: H929 live cell
# CK1g3, sequence (Q9Y6M4 whole entry): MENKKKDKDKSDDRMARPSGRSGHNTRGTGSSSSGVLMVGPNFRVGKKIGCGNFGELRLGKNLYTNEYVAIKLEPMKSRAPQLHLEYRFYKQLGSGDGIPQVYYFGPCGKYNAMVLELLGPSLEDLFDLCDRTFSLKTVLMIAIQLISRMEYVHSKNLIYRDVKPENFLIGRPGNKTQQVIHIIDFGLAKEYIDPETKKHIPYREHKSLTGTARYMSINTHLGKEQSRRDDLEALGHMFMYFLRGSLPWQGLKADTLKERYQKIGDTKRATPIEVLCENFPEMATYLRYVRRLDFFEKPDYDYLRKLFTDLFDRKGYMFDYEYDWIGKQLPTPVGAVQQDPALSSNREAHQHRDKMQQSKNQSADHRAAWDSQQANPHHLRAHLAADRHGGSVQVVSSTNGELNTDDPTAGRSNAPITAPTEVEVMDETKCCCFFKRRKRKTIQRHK
# Method: as §1
# MLK3 = MLK3 (Homo sapiens (Human), UniProt Q16584); settings: H929 live cell
# Method: as §1
# MAP3K1 = MAP3K1 (Homo sapiens (Human), UniProt Q13233); settings: H929 live cell
# MAP3K1, sequence (Q13233 whole entry): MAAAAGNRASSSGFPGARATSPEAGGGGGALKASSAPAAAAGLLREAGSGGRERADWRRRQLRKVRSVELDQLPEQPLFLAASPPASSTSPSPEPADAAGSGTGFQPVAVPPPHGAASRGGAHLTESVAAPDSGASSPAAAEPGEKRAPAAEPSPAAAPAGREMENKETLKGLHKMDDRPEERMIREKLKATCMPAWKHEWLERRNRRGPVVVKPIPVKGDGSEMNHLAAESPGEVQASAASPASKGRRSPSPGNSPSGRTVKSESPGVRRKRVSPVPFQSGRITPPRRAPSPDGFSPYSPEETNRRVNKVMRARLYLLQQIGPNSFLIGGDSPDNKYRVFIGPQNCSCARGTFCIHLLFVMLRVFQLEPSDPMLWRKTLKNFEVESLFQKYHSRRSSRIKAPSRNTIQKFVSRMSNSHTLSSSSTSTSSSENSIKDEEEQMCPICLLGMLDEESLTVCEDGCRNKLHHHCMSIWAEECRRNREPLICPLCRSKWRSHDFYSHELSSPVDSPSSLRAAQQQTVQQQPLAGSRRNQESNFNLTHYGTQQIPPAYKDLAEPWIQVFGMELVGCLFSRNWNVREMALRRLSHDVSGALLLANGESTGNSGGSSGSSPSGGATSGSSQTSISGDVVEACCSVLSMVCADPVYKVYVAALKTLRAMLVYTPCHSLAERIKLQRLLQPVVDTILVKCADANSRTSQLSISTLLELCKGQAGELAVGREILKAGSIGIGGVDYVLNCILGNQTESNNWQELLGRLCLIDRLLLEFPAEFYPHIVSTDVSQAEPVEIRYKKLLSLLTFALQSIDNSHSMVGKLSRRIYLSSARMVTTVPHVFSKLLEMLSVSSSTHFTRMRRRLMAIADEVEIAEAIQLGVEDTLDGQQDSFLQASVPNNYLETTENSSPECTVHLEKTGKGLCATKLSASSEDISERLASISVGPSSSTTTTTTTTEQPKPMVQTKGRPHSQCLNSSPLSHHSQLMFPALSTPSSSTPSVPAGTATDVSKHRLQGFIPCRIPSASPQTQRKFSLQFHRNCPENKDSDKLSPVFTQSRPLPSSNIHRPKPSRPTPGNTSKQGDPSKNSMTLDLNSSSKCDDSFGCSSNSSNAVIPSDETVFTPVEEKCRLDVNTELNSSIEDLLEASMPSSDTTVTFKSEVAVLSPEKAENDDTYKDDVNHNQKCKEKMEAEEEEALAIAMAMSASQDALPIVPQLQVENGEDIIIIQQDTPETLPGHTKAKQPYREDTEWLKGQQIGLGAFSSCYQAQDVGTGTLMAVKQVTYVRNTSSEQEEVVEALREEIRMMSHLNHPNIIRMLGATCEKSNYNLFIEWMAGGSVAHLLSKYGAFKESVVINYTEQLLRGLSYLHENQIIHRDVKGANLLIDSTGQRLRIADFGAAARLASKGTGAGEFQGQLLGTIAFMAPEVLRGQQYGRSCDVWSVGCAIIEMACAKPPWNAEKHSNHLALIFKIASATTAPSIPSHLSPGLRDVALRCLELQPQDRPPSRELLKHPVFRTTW
# Method: as §1
# PKCz = PKCz (Homo sapiens (Human), UniProt Q05513); settings: H929 live cell
# PKCz, sequence (Q05513 whole entry): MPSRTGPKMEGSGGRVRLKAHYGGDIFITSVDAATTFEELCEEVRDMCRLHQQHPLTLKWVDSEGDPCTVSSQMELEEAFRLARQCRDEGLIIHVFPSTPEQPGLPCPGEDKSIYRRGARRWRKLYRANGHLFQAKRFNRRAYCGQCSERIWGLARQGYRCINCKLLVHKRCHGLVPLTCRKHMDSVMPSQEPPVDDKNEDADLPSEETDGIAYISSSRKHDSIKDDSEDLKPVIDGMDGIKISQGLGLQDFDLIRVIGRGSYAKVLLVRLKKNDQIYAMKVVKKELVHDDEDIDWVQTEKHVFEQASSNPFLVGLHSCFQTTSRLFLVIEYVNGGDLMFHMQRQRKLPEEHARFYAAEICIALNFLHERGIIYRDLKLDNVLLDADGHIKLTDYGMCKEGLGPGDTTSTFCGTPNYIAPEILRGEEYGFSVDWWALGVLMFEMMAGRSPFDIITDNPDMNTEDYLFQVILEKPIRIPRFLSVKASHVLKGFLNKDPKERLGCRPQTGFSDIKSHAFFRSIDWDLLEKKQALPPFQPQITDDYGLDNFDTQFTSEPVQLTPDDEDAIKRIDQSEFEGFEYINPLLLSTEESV
# Method: as §1
# IKKb = IKKb (Homo sapiens (Human), UniProt O14920); settings: H929 live cell
# Method: as §1
# JNK1, JNK2, JNK3 = settings: H929 live cell
# Method: as §1
# MAP2K1 = MAP2K1 (Homo sapiens (Human), UniProt Q02750); settings: H929 live cell
# Method: as §1
# PIP5K3 = PIP5K3 (Homo sapiens (Human), UniProt Q9Y2I7); settings: H929 live cell
# Method: as §1
# GSK3B = GSK3B (Homo sapiens (Human), UniProt P49841); settings: H929 live cell
# Method: as §1
# CHK1 = CHK1 (Homo sapiens (Human), UniProt O14757); settings: H929 live cell
# Method: as §1
# MAP3K4 = MAP3K4 (Homo sapiens (Human), UniProt Q9Y6R4); settings: H929 live cell
# Method: as §1
# PKD3 = PKD3 (Homo sapiens (Human), UniProt O94806); settings: H929 live cell
# PKD3, sequence (O94806 whole entry): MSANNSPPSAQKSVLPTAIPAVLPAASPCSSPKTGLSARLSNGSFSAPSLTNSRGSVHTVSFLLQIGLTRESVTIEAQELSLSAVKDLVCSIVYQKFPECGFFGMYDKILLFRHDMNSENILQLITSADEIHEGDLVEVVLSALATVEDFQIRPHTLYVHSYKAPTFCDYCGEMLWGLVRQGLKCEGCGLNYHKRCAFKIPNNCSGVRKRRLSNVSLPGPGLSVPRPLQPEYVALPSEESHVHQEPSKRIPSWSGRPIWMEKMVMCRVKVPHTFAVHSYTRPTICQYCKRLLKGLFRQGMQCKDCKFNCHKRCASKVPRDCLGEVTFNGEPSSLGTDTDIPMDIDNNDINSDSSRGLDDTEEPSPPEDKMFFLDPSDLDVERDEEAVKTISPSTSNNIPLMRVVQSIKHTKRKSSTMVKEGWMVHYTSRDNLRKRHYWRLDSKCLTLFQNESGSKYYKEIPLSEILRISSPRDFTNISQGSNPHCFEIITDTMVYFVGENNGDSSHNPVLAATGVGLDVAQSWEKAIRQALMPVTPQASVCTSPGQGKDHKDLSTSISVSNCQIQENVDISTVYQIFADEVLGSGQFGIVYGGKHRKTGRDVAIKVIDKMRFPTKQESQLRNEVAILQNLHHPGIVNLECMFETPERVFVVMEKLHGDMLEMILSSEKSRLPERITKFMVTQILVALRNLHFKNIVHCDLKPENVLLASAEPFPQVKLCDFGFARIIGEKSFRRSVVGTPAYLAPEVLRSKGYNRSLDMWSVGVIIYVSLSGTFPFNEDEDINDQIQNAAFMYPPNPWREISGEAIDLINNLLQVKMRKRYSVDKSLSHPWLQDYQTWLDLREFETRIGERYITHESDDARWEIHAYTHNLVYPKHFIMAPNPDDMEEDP
# Method: as §1
structure (smiles),measurement,setting,value
"Nc1ncc(-c2cccc([N+](=O)[O-])c2F)cc1-c1ccc2c(c1)CCNC2=O [Compound I-9, 6-(2-amino-5-(2-fluoro-3-nitrophenyl)pyridin-3-yl)-3,4-dihydroisoquinolin-1(2H)-one]",inhibition at 10 µM,eEF2K; read-out: % inhibition (range),0%
same,inhibition at 10 µM,eEF2K; read-out: inhibition (10 μM),-94.7%
same,inhibition at 10 µM,MAP2K7; read-out: % inhibition (range),0%
same,inhibition at 10 µM,MAP2K7; read-out: inhibition (10 μM),14.6%
same,inhibition at 10 µM,PHKg2; read-out: % inhibition (range),0%
same,inhibition at 10 µM,PHKg2; read-out: inhibition (10 μM),-30.7%
same,inhibition at 10 µM,BARK1; read-out: % inhibition (range),0%
same,inhibition at 10 µM,BARK1; read-out: inhibition (10 μM),2.8%
same,inhibition at 10 µM,PAN3; read-out: % inhibition (range),0%
same,inhibition at 10 µM,PAN3; read-out: inhibition (10 μM),-7.1%
same,% inhibition (range),"MARK1, MARK2; 10 μM",35-50%
same,inhibition (10 μM),"MARK1, MARK2",40.7%
same,inhibition at 10 µM,IRAK4; read-out: % inhibition (range),0%
same,inhibition at 10 µM,IRAK4; read-out: inhibition (10 μM),-14.1%
same,inhibition at 10 µM,PIK3CG; read-out: % inhibition (range),0%
same,inhibition at 10 µM,PIK3CG; read-out: inhibition (10 μM),16.3%
same,% inhibition (range),"MARK2, MARK3; 10 μM",50-75%
same,inhibition (10 μM),"MARK2, MARK3",70.2%
same,inhibition at 10 µM,CK1g2; read-out: % inhibition (range),> 90%
same,inhibition at 10 µM,CK1g2; read-out: inhibition (10 μM),> 90%
same,% inhibition (range),"Wnk1, Wnk2, Wnk3; 10 μM",>100%
same,inhibition (10 μM),"Wnk1, Wnk2, Wnk3",−105.5%
same,inhibition at 10 µM,DGKH,44.2%
same,inhibition at 10 µM,NEK9; read-out: % inhibition (range),0%
same,inhibition at 10 µM,NEK9; read-out: inhibition (10 μM),-38.3%
same,inhibition at 10 µM,MARK3; read-out: % inhibition (range),75 to 90%
same,inhibition at 10 µM,MARK3; read-out: inhibition (10 μM),78.3%
same,inhibition at 10 µM,IRAK1; read-out: % inhibition (range),75 to 90%
same,inhibition at 10 µM,IRAK1; read-out: inhibition (10 μM),82.6%
same,inhibition at 10 µM,OSR1; read-out: % inhibition (range),0%
same,inhibition at 10 µM,OSR1; read-out: inhibition (10 μM),-11.8%
same,inhibition at 10 µM,MSK2 domain1; read-out: % inhibition (range),0%
same,inhibition at 10 µM,MSK2 domain1; read-out: inhibition (10 μM),-36.5%
same,% inhibition (range),"MST1, MST2; 10 μM",>90%
same,inhibition (10 μM),"MST1, MST2",99.0%
same,inhibition at 10 µM,SMG1; read-out: % inhibition (range),> 90%
same,inhibition at 10 µM,SMG1; read-out: inhibition (10 μM),94.7%
same,inhibition at 10 µM,CLK2; read-out: % inhibition (range),> 90%
same,inhibition at 10 µM,CLK2; read-out:,> 95%
same,% inhibition (range),[1]; 10 μM,>90%
same,inhibition (10 μM),[1],96.7%
same,% inhibition (range),"IKKe, TBK1; 10 μM",0.0%
same,inhibition (10 μM),"IKKe, TBK1",21.2%
same,inhibition at 10 µM,CK1g3; read-out: % inhibition (range),> 90%
same,inhibition at 10 µM,CK1g3; read-out: inhibition (10 μM),93%
same,inhibition at 10 µM,MLK3; read-out: % inhibition (range),50 to 75%
same,inhibition at 10 µM,MLK3; read-out: inhibition (10 μM),62.9%
same,inhibition at 10 µM,MAP3K1; read-out: % inhibition (range),> 90%
same,inhibition at 10 µM,MAP3K1; read-out: inhibition (10 μM),95.6%
same,inhibition at 10 µM,PKCz; read-out: % inhibition (range),0%
same,inhibition at 10 µM,PKCz; read-out: inhibition (10 μM),27%
same,inhibition at 10 µM,IKKb; read-out: % inhibition (range),0%
same,inhibition at 10 µM,IKKb; read-out: inhibition (10 μM),-15%
same,% inhibition (range),"JNK1, JNK2, JNK3; 10 μM",0.0%
same,inhibition (10 μM),"JNK1, JNK2, JNK3",−24.2%
same,inhibition at 10 µM,MAP2K1; read-out: % inhibition (range),0%
same,inhibition at 10 µM,MAP2K1; read-out: inhibition (10 μM),-55.8%
same,inhibition at 10 µM,PIP5K3; read-out: % inhibition (range),> 90%
same,inhibition at 10 µM,PIP5K3; read-out: inhibition (10 μM),92%
same,inhibition at 10 µM,GSK3B; read-out: % inhibition (range),> 90%
same,inhibition at 10 µM,GSK3B; read-out: inhibition (10 μM),97.2%
same,inhibition at 10 µM,CHK1; read-out: % inhibition (range),0%
same,inhibition at 10 µM,CHK1; read-out: inhibition (10 μM),14.9%
same,inhibition at 10 µM,MAP3K4; read-out: % inhibition (range),0%
same,inhibition at 10 µM,MAP3K4; read-out: inhibition (10 μM),-9.6%
same,inhibition at 10 µM,PKD3; read-out: % inhibition (range),50 to 75%
same,inhibition at 10 µM,PKD3; read-out: inhibition (10 μM),74.2%
